Experiment [1] deals with Radical scavenging activity. Kind of experiment: Antioxidant activity assessed as DPPH radical scavenging activity at 100 ug/mL after 30 mins. It counts as functional. For orientation: Loss of DPPH colour is used to gauge radical scavenging.
The nature of experiment [2]: Antioxidant activity assessed as superoxide anion scavenging activity at 100 ug/mL after 5 mins by NBT reduction assay. In kind it is functional.
Experiment [3] is described as follows: Antioxidant activity assessed as ferrous ion chelating activity after 30 mins by spectrophotometry. In kind it is functional.
Another experiment concerns Liver. Kind of experiment: Inhibition of FeSO4-induced lipid peroxidation in Sprague-Dawley rat liver homogenate assessed as decrease in malondialdehyde level after 1 hr by TBA assay. In kind it is functional, tissue-based.
Experiment [4] concerns Radical scavenging activity. Kind of experiment: Antioxidant activity assessed as DPPH radical scavenging activity after 30 mins. It counts as functional.
The nature of experiment [5]: Antioxidant activity assessed as superoxide anion scavenging activity after 5 mins by NBT reduction assay. In kind it is functional.
A short description of experiment [6]: Antioxidant activity assessed as protection against H2O2-induced pcDNA3.1(+) scission at 100 ug/mL after 30 mins by […] staining-based gel electrophoresis. In kind it is functional.
The nature of experiment [7]: Antioxidant activity assessed as protection against H2O2-induced pcDNA3.1(+) scission after 30 mins by […] staining-based gel electrophoresis. In kind it is functional.

Calls of active or inactive are those of the source. The calls are words filed in the database; no cut-off is given here.

As to `COc1cc(C2Oc3cc([C@H]4Oc5cc(O)cc(O)c5C(=O)[C@@H]4O)ccc3OC2CO)ccc1O` (some centres not stated) [SILIBININ], the values for the Activity in experiment [1] and in experiment [2] were 16.6% and 38.2%, respectively. Moreover, in experiment [3], the EC50 – broadly, the midpoint of the concentration-response curve – was determined as 196 µM. For the same compound, the half-inhibitory concentration (IC50) – broadly, the point on the concentration scale where inhibition reaches its midpoint – in the experiment on Liver is 22.7 µM.

For the compound `O=c1c(O)c(-c2ccc(O)c(O)c2)oc2cc(O)cc(O)c12` [QUERCETIN], the 50% effective concentration (EC50) came out at 5.5 µM in experiment [4], 31.8 µM in experiment [5] and 236 µM in experiment [3]. The results for the Activity (in experiment [1]; in experiment [2]; in the experiment with Liver) were 96.8%, 93.8% and “Dose-dependent effect”, respectively. The concentration for half-maximal inhibition (IC50) with Liver came out at 1.8 µM.

As for `COc1cc(C2Oc3cc([C@H]4Oc5cc(O)cc(O)c5C(=O)[C@@H]4O)ccc3OC2COC(=O)c2ccc3c(c2)OCO3)ccc1O` (relative stereo), the Activity in experiment [1] worked out at 31.7%; in experiment [2] it was 7.3%. In addition, the EC50 in experiment [3] came out at 108 µM. The IC50 with Liver was found to be 20.8 µM. Moreover, in experiment [6], the result was inactive.

As to `COc1cc(C2Oc3cc([C@H]4Oc5cc(O)cc(O)c5C(=O)[C@@H]4O)ccc3OC2COC(=O)c2cccc(Cl)c2)ccc1O` (some centres not stated), the Activity in experiment [1] amounted to 5.6%; in experiment [2], 7%. Also, the concentration giving a half-maximal response (EC50) in experiment [3] worked out at 106 µM. In addition, the IC50 in the experiment on Liver was found to be 14.2 µM. Besides, the result in experiment [6] was Active.

As for `COc1cc(C2Oc3cc([C@H]4Oc5cc(O)cc(O)c5C(=O)[C@@H]4O)ccc3OC2COC(=O)/C=C/c2ccc(Br)cc2)ccc1O` (relative stereo), the Activity in experiment [1] was 19.8%; in experiment [2], 6.5%; in experiment [7] it was “Dose-dependent effect”. Also, in experiment [3], the EC50 is 88.9 µM. The IC50 in the experiment on Liver stood at 16.3 µM. The outcome in experiment [6] was Active.

Regarding `COc1cc(C2Oc3cc([C@H]4Oc5cc(O)cc(O)c5C(=O)[C@@H]4O)ccc3OC2COC(=O)c2ccc([N+](=O)[O-])cc2)ccc1O` (relative stereo), the Activity in experiment [1] was 38.6%. Also, the result in experiment [2] and in experiment [6] was inactive. In addition, the EC50 in experiment [3] was over 300 µM. In the experiment with Liver, the IC50 is 12.6 µM.

Consider `COc1cc(C2Oc3cc([C@H]4Oc5cc(O)cc(O)c5C(=O)[C@@H]4O)ccc3OC2COC(=O)c2ccc(OC)c(OC)c2)ccc1O` (mixture of isomers), for which the results for the Activity in experiment [1], in experiment [2] and in experiment [7] were 34.2%, 37.2% and “Dose-dependent effect”, respectively. Besides, the EC50 in experiment [3] was determined as 77 µM. The half-maximal inhibitory concentration (IC50) with Liver is 16 µM. Besides, the result in experiment [6] was Active.

Regarding `COc1cc(C2Oc3cc([C@H]4Oc5cc(O)cc(O)c5C(=O)[C@@H]4O)ccc3OC2COC(=O)/C=C/c2ccc(Cl)cc2)ccc1O` (relative stereo), the Activity is 18.4% in experiment [1], 9.1% in experiment [2] and “Dose-dependent effect” in experiment [7]. In addition, the half-maximal effective concentration (EC50) in experiment [3] amounted to 87.9 µM. In addition, the IC50 in the experiment on Liver came to 12 µM. The result in experiment [6] was Active.

As for `CCOC(=O)CC(=O)OCC1Oc2ccc([C@H]3Oc4cc(O)cc(O)c4C(=O)[C@@H]3O)cc2OC1c1ccc(O)c(OC)c1` (relative stereo), the EC50 was 113 µM in experiment [5] and 101 µM in experiment [3]. Besides, the Activity in experiment [1] stood at 16.2%; in experiment [2], 60.1%. Besides, the IC50 in the experiment on Liver worked out at 33.4 µM. In addition, in experiment [6], the result was Active.

For the compound `O=C([O-])CN(CCN(CC(=O)[O-])CC(=O)O)CC(=O)O.[Na+].[Na+]` [EDETATE DISODIUM ANHYDROUS], in experiment [3], the EC50 was 16.2 µM.

Regarding `COc1cc(C2Oc3cc([C@H]4Oc5cc(O)cc(O)c5C(=O)[C@@H]4O)ccc3OC2COC(=O)c2ccc(N)cc2)ccc1O` (relative stereo), the Activity turned out to be 16.4% in experiment [1] and 43.3% in experiment [2]. In experiment [3], the EC50 came out at 128 µM. For the same compound, in the experiment on Liver, the IC50 was 14.3 µM. Besides, in experiment [6], the outcome was inactive.

For `COc1cc(C2Oc3cc([C@H]4Oc5cc(O)cc(O)c5C(=O)[C@@H]4O)ccc3OC2COC(=O)c2cc([N+](=O)[O-])cc([N+](=O)[O-])c2)ccc1O` (relative stereo), the figures for the Activity in experiment [1] and in experiment [2] were 22.1% and 32%, respectively. The concentration for a half-maximal effect (EC50) in experiment [3] was 205 µM. Also, the half-maximal inhibitory concentration (IC50) in the experiment on Liver came out at 14.6 µM. Besides, the outcome in experiment [6] was inactive.

For the compound `COc1cc(C2Oc3cc([C@H]4Oc5cc(O)cc(O)c5C(=O)[C@@H]4O)ccc3OC2COC(=O)c2cc(OC)c(OC)c(OC)c2)ccc1O` (relative stereo), the EC50 in experiment [4] was 145 µM; in experiment [3], 94.8 µM. In addition, the Activity in experiment [1] is 52.6%; in experiment [2], 36.1%; in experiment [7], “Dose-dependent effect”. Further, the IC50 with Liver came to 25.7 µM. Also, the outcome in experiment [6] was Active.

With `COc1cc(C2Oc3cc([C@H]4Oc5cc(O)cc(O)c5C(=O)[C@@H]4O)ccc3OC2COC(=O)c2ccccc2)ccc1O` (relative stereo), the results for the Activity in experiment [1] and in experiment [7] were 40.4% and “Dose-dependent effect”, respectively. Also, the outcome in experiment [2] was inactive. Moreover, the EC50 in experiment [3] was determined as 105 µM. Further, in the experiment on Liver, the IC50 turned out to be 12.7 µM. The outcome in experiment [6] was Active.

As to `COc1cc(C2Oc3cc([C@H]4Oc5cc(O)cc(O)c5C(=O)[C@@H]4O)ccc3OC2COC(=O)c2cc(N)cc([N+](=O)[O-])c2)ccc1O` (some centres not stated), the 50% effective concentration (EC50) is 127 µM in experiment [4], 129 µM in experiment [5] and over 300 µM in experiment [3]. Further, the results for the Activity (in experiment [1]; in experiment [2]; in the experiment on Liver) were 59.9%, 54.3% and “Dose-dependent effect”, respectively. The IC50 in the experiment on Liver was determined as 0.2 µM. In experiment [6], the outcome was inactive.

Consider `COc1ccc(C(=O)OCC2Oc3ccc([C@H]4Oc5cc(O)cc(O)c5C(=O)[C@@H]4O)cc3OC2c2ccc(O)c(OC)c2)cc1` (relative stereo), for which the Activity in experiment [1] amounted to 37.1%; in experiment [2], 6.5%. Also, the concentration for a half-maximal effect (EC50) in experiment [3] turned out to be 73.3 µM. Moreover, in the experiment with Liver, the IC50 amounted to 21 µM. Moreover, in experiment [6], the result was inactive.

Regarding `COc1cc(C2Oc3cc([C@H]4Oc5cc(O)cc(O)c5C(=O)[C@@H]4O)ccc3OC2COC(=O)/C=C/c2ccc(C)cc2)ccc1O` (relative stereo), the Activity in experiment [1] amounted to 33.3%; in experiment [2], 7.3%. For the same compound, the EC50 in experiment [3] is 136 µM. In addition, in the experiment on Liver, the concentration for half-maximal inhibition (IC50) was 14.7 µM. Also, the outcome in experiment [6] was Active.
